Source: US9670259B2, “Method of inhibiting angiogenesis using inhibitors of G-protein-coupled receptor kinase interacting protein-1 (GIT1)” (University of Rochester, priority 2013, dated 2017)

B1: SHD-Flag: flag-tagged SHD domain of GIT1 (residues 250-420 of SEQ ID NO: 1) cloned into a lentivirus vector (protein, listed as Homo sapiens)
chain: QMADSLDLSELAKAAKKKLQALSNRLFEELAMDVYDEVDRRENDAVWLATQNHSTLVTERSAVPFLPVNPEYSATRNQGRQKLARFNAREFATLIIDILSEAKRRQQGKSLSSPTDNLELSLRSQSDLDDQHDYDSVASDEDTDQEPLRSTGATRSNRARSMDSSDLSDGA
modifications: Flag tag; lentivirus vector

Legend:
Format in all cases: cell-based, human
Notch1 = Notch1 expression and cleavage (N1-ICD) after GIT1 depletion with siRNA in HUVECs; settings: siRNA treated
Description: (§1) Human umbilical vein endothelial cells (HUVECs) were isolated and grown in Medium 200 with low serum growth supplement (Cascade Biologics, Inc., Portland, Oreg.) as described previously (Carmeliet et al., Nature 436:193 (2005), which is hereby incorporated by reference in its entirety). GIT1 siRNA ([…]) (SEQ ID NO: 21) and control non-silencing siRNA([…]) (SEQ ID NO: 22) were designed and synthesized (Ambion) and Dll4 siRNA was purchased (Santa Cruz). The siRNA were transfected at 100 nM for 48 h as previously described by our laboratory (Yin et al., Mol. Cell Biol., 24:875 (2004), which is hereby incorporated by reference in its entirety). HEK293 cells were cultured in Dulbecco's modified Eagle's medium supplemented with 10% fetal bovine serum (FBS), penicillin, and streptomycin at 37° C. in 5% CO2. HEK293T cells were transfected by Lipofectamine/plus (Invitrogen).
(§2) For immunoblotting, cells were lysed in RIPA buffer (150 mM NaCl, 1% Nonidet P-40, […], 0.1% SDS, 50 mM Tris-HCl, pH 8.0). Protein concentrations in the lysates were determined. The protein samples were separated by SDS-PAGE, transferred to nitrocellulose membranes, and incubated with appropriate primary antibodies. After incubating with fluorescence-conjugated secondary antibodies, immunoreactive proteins were visualized by an Odyssey infrared imaging system (LI-COR Biotechnology, Nebraska). […]

Dll4 = Dll4 mRNA (qRT-PCR) and protein (western blot) after GIT1 depletion with siRNA in HUVECs; settings: siRNA 48 h, compared to control siRNA
Description: as §1, with “HEK293 cells were cultured in Dulbecco's modified Eagle's medium supplemented with 10% fetal bovine serum (FBS), penicillin, and streptomycin at 37° C. in 5% CO2. HEK293T cells were transfected by Lipofectamine/plus (Invitrogen).” left out
as §2, with “The protein samples were separated by SDS-PAGE, transferred to nitrocellulose membranes, and incubated with appropriate primary antibodies.” left out
(§3) Total RNA from retinas and lungs of GIT1 WT and KO mice or HUVECs was obtained using TRIzol reagent (Invitrogen) according to the manufacturer's protocol. […] Target genes mRNA expression and mitochondrial DNA content were determined by qRT-PCR (Applied Biosystems). […]

Hey1 = Hey1 mRNA (qRT-PCR) and protein (western blot) after GIT1 depletion with siRNA in HUVECs; settings: compared to control siRNA
Description: as §1, with “HEK293 cells were cultured in Dulbecco's modified Eagle's medium supplemented with 10% fetal bovine serum (FBS), penicillin, and streptomycin at 37° C. in 5% CO2. HEK293T cells were transfected by Lipofectamine/plus (Invitrogen).” left out
as §2, with “The protein samples were separated by SDS-PAGE, transferred to nitrocellulose membranes, and incubated with appropriate primary antibodies.” left out
as §3

HUVEC = HUVEC tube formation on matrigel after SHD overexpression; settings: HUVECs with VEGF on growth factor reduced matrigel, 16 hours, compared to control
Description: In addition to PLCγ signaling, the effect of SHD overexpression on HUVEC tube formation in vitro was also assessed. Endothelial cells reorganize themselves in a 3D matrix like matrigel and form tubes which is an index of in vitro angiogenesis. After 48 hours, cells were cultured at a constant number (10^4 cells/well) with VEGF on growth factor reduced matrigel (30 uL) coated 96 well plate and incubated for 16 hours.

ERK1/2 = test: VEGF induced ERK1/2 activation in HUVEC infected with SHD-Flag lentivirus; settings: lentivirus overexpression, VEGF 10 ng/mL
Description: (§4) In an effort to identify the potential GIT1 inhibitor peptides, a flag-tagged SHD domain of GIT1 (SHD-Flag) was cloned into a lentivirus vector.
(§5) HUVECs were seeded on 6 well plate at 80% confluence. The next day, cells were infected with control and SHD-Flag containing Lentivirus with Polybrene. After 1 day, infection media was changed with fresh complete M200 media (containing 5% FBS+1% Penicillin-Streptomycin and 2% LSGS). After 48 hours, cells were serum starved with serum free M200 media for 1 hour and stimulated with VEGF (10 ng/mL) for different time points ranging from 0 to 30 minutes. Next cells were lysed and used for western blot analysis to measure PLCγ and ERK1/2 activation. […] No effect of SHD overexpression on VEGF induced ERK1/2 activation was observed. Flag tagged SHD expression in HUVECs were confirmed by detecting Flag in the lysate

PLCγ = test: VEGF induced PLCγ activation in HUVEC infected with SHD-Flag lentivirus; settings: lentivirus overexpression, VEGF 10 ng/mL
Description: as §4, §5

Molecule | Notch1 expression (Notch1) | enhancement of expression of N1-ICD (Notch1; normalized to total Notch1) | increase of Dll4 mRNA expression (Dll4) | increase of Dll4 protein expression (Dll4) | increase of Hey1 mRNA expression (Hey1) | increase of Hey1 protein expression (Hey1) | formation of tube-like structures (HUVEC) | VEGF induced ERK1/2 activation (ERK1/2) | VEGF induced PLCγ activation (PLCγ)
GIT1 siRNA: siRNA AAGCTGCCAAGAAGAAGCTAC (SEQ ID NO: 21), synthesized (Ambion) (listed as DNA, chemistry not given here) | no change | 1.7±0.4 fold | 3.2±0.6 fold | 6.3±0.3 fold | 5.2±0.57 fold | 3.0±0.3 fold | – | – | –
B1 | – | – | – | – | – | – | inhibited the formation of tube-like structures | No effect | blocked VEGF induced PLCγ activation
